In patent publication US20220323429A1, “PIMAVANSERIN FOR TREATING NEURODEGENERATIVE DISEASES” (ACADIA Pharmaceuticals Inc., priority 2019, published 2022):

Assay: In-use stability impurity analysis (HPLC) of pimavanserin 34 mg capsule contents in vehicles
Format: physicochemical
Conditions: for Impurity D / Impurity Unknown RRT 0.90 / Impurity Unknown RRT 0.99 / Impurity Unknown RRT 1.10 / Total Imp.: ambient
Experimental: Analytical HPLC Stability Study experiments (Example 1) were performed on Agilent 1200 Series, or equivalent; Waters XBridge C18 column, 5 μm 150×4.6 mm; mobile phase: Solvent A: 50 mM ammonium bicarbonate, pH 8.0; Solvent B: acetonitrile/methanol, 80:20 (v/v); Flow rate: 1 mL/min; Inj. Volume 20 μL; Autosampler Temp. 5° C.; column temperature: 40° C., detection UV at 210 nm; sample concentration (as free base) assay: 0.068 mg/mL, impurity: 0.68 mg/mL; standard concentration (as free base) 0.068 mg/mL; PLOQ Std. 0.05% of 0.68 mg/mL; SST solution, 1% of 0.68 mg/mL (impurities A, C, D, E, F, and G); diluent for standards 80/20 (v/v) ethanol/water; diluent for samples, ethanol; run time 40 min; gradient method: 0 min mobile phase A (90%) and mobile phase B (10%) to 30 min mobile phase A (0%), and mobile phase B (100%); then 30.1 min to 40 min mobile phase A (90%), mobile phase B (10%).
Samples for the assessment of the degradation products stability from solutions or mixtures of pimavanserin in vehicles were prepared as follows. Four samples (n=4) were prepared for each vehicle as follows.
For each sample, one capsule was weighed, and the content of each capsule was dropped into a 50 mL volumetric flask and the empty capsule shell was weighed and discarded. The specified amount of each vehicle was added as specified in Table 3, below.
The flasks were gently swirled to ensure the capsule contents were visually incorporated with the vehicle. The flasks were kept on the bench at ambient temperature for each time point: 2, 4, and 24 hours. Time 0 samples were processed immediately. At the specified time point a stir bar and approximately 45 mL of diluent were added to the flask. The solution was stirred vigorously for 2 hours, and the flask was left on the bench overnight. The next day the flasks were sonicated for approximately 30 minutes. The stir bar was removed and rinsed carefully with diluent into the flask, and the flask was diluted to volume with diluent and mixed well by inversion. An aliquot of each solution was centrifuged for 5 minutes at 10000 rpm. The supernatant was transferred to a HPLC vial, and injected for analysis.

Impurity D (Ensure 5 mL, T = 0): 0.22 % w/w | Impurity Unknown RRT 0.90 (Ensure 5 mL, T = 0): 0.08 % w/w | Impurity Unknown RRT 0.99 (Ensure 5 mL, T = 0): 0.09 % w/w | Impurity Unknown RRT 1.10 (Ensure 5 mL, T = 0): 0.06 % w/w | Total Imp. (Ensure 5 mL, T = 0): 0.45 % w/w | Impurity D (Ensure 5 mL, T = 2 h): 0.20 % w/w | Impurity Unknown RRT 0.90 (Ensure 5 mL, T = 2 h): 0.08 % w/w | Impurity Unknown RRT 0.99 (Ensure 5 mL, T = 2 h): 0.10 % w/w | Impurity Unknown RRT 1.10 (Ensure 5 mL, T = 2 h): 0.05 % w/w | Total Imp. (Ensure 5 mL, T = 2 h): 0.43 % w/w | Impurity D (Ensure 5 mL, T = 4 h): 0.23 % w/w | Impurity Unknown RRT 0.90 (Ensure 5 mL, T = 4 h): 0.08 % w/w | Impurity Unknown RRT 0.99 (Ensure 5 mL, T = 4 h): 0.09 % w/w | Impurity Unknown RRT 1.10 (Ensure 5 mL, T = 4 h): 0.06 % w/w | Total Imp. (Ensure 5 mL, T = 4 h): 0.46 % w/w | Impurity D (Ensure 5 mL, T = 24 h): 0.23 % w/w | Impurity Unknown RRT 0.90 (Ensure 5 mL, T = 24 h): 0.07 % w/w | Impurity Unknown RRT 0.99 (Ensure 5 mL, T = 24 h): 0.10 % w/w | Impurity Unknown RRT 1.10 (Ensure 5 mL, T = 24 h): 0.06 % w/w | Total Imp. (Ensure 5 mL, T = 24 h): 0.46 % w/w | change in impurity profile (any vehicle, over 24 hours at ambient room temperature): no significant change | Impurity D (applesauce 5 g, T = 0): 0.19 % w/w | Impurity Unknown RRT 0.99 (applesauce 5 g, T = 0): 0.09 % w/w | Total Imp. (applesauce 5 g, T = 0): 0.28 % w/w | Impurity D (applesauce 5 g, T = 2 h): 0.21 % w/w | Impurity Unknown RRT 0.99 (applesauce 5 g, T = 2 h): 0.10 % w/w | Total Imp. (applesauce 5 g, T = 2 h): 0.31 % w/w | Impurity D (applesauce 5 g, T = 4 h): 0.22 % w/w | Impurity Unknown RRT 0.99 (applesauce 5 g, T = 4 h): 0.10 % w/w | Total Imp. (applesauce 5 g, T = 4 h): 0.32 % w/w | Impurity D (applesauce 5 g, T = 24 h): 0.22 % w/w | Impurity Unknown RRT 0.99 (applesauce 5 g, T = 24 h): 0.09 % w/w | Total Imp. (applesauce 5 g, T = 24 h): 0.31 % w/w | individual and total impurities across timepoints (each vehicle, 0-24 h): consistent between all timepoints | Impurity D (orange juice 5 mL, T = 0): 0.17 % w/w | Impurity Unknown RRT 0.99 (orange juice 5 mL, T = 0): 0.09 % w/w | Total Imp. (orange juice 5 mL, T = 0): 0.26 % w/w | Impurity D (orange juice 5 mL, T = 2 h): 0.17 % w/w | Impurity Unknown RRT 0.99 (orange juice 5 mL, T = 2 h): 0.09 % w/w | Total Imp. (orange juice 5 mL, T = 2 h): 0.26 % w/w | Impurity D (orange juice 5 mL, T = 4 h): 0.17 % w/w | Impurity Unknown RRT 0.99 (orange juice 5 mL, T = 4 h): 0.09 % w/w | Total Imp. (orange juice 5 mL, T = 4 h): 0.26 % w/w | Impurity D (orange juice 5 mL, T = 24 h): 0.17 % w/w | Impurity Unknown RRT 0.99 (orange juice 5 mL, T = 24 h): 0.09 % w/w | Total Imp. (orange juice 5 mL, T = 24 h): 0.26 % w/w | additional unknown impurities (two impurities, samples extracted from vanilla Ensure, time 0): < 0.1% | Impurity D (water 5 mL, T = 0): 0.23 % w/w | Impurity Unknown RRT 0.99 (water 5 mL, T = 0): 0.10 % w/w | Total Imp. (water 5 mL, T = 0): 0.33 % w/w | Impurity D (water 5 mL, T = 2 h): 0.24 % w/w | Impurity Unknown RRT 0.99 (water 5 mL, T = 2 h): 0.10 % w/w | Total Imp. (water 5 mL, T = 2 h): 0.34 % w/w | Impurity D (water 5 mL, T = 4 h): 0.23 % w/w | Impurity Unknown RRT 0.99 (water 5 mL, T = 4 h): 0.10 % w/w | Total Imp. (water 5 mL, T = 4 h): 0.33 % w/w | Impurity D (water 5 mL, T = 24 h): 0.25 % w/w | Impurity Unknown RRT 0.99 (water 5 mL, T = 24 h): 0.10 % w/w | Total Imp. (water 5 mL, T = 24 h): 0.35 % w/w
Compound: CC(C)COc1ccc(CNC(=O)N(Cc2ccc(F)cc2)C2CCN(C)CC2)cc1 [Pimavanserin, N-(4-Fluorophenylmethyl)-N-(1-methylpiperidin-4-yl)-N′-(4-(2-methylpropyloxy)phenylmethyl)carbamide]
